From paper PMC8776092, “A Toxoplasma gondii Oxopurine Transporter Binds Nucleobases and Nucleosides Using Different Binding Modes” (International Journal of Molecular Sciences, 2022)
Where two headings read alike, the source gives them in different places.

Assays:
TgNBT1 = details: tachyzoites; cited from earlier work
Tg244440 [1] = biological target: T1, Tg244440 (Toxoplasma gondii, UniProt A0A125YNC9); assay: [3H]-guanine uptake and its inhibition in T. brucei TbNB-KO procyclics expressing Tg244440 (clone F5); assay type: cell-based
T1 sequence (A0A125YNC9 1-462): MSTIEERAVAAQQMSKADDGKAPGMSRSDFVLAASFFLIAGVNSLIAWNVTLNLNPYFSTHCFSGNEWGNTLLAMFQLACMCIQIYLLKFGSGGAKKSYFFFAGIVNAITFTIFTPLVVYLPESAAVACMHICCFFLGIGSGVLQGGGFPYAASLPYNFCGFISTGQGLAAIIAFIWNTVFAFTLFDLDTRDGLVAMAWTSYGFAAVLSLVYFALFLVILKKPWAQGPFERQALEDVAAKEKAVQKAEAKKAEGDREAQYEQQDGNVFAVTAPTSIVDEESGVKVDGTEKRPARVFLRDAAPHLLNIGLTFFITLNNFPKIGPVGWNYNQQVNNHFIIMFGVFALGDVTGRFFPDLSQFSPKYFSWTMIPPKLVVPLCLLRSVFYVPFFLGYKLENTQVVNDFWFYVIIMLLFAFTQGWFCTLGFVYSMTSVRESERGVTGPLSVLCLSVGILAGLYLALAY
Protocol: (§1) Briefly, PCF cells of T. brucei in logarithmic growth were harvested by centrifugation at 1000× g for 10 min, washed twice in AB and then resuspended in fresh buffer at a final density of 10^8 cells/mL. […] Immediately after finishing the assay, all tubes were flash-frozen in liquid nitrogen and the cell pellets were cut into scintillation vials and lysed with a solution of 2% SDS for one hour under agitation. Then, 3 mL of scintillation fluid (Scintilogic U, Lablogic) was added to each vial and left agitating overnight on a rocking platform. The next morning, the vials were vigorously shaken to ensure optimal mixing and the scintillation was measured in a 300SL (Hidex) scintillation counter. All assays were carried out in triplicate. All experimental data such as Km, Ki and Vmax values are the average and SEM of at least three separate experiments, each in triplicate, unless otherwise indicated.
(§2) Background scintillation was measured in vials containing no cells or radiolabeled substrate, and counts associated with extracellular radiolabel were calculated from samples where cells were briefly incubated with the same concentration of radiolabel, but in the presence of saturating concentrations of non-radiolabeled substrate before centrifugation through oil. The average of the three control replicates was subtracted from each data point.

[2] = system: TbNBT-KO cells transfected with the empty vector (EV); assay: [3H]-guanine and [3H]-hypoxanthine uptake in TbNBT-KO cells transfected with the empty vector (EV); assay type: cell-based, Trypanosoma brucei; details: for Rate of [3H]-hypoxanthine uptake, EV: empty vector cells
Protocol: as §1, §2

Tg244440 [3] = biological target: T1, Tg244440; assay type: cell-based; details: 0.1 μM [3H]-permeant, 60 s, clones B11, F5 and G10
Protocol: Figure 2 Uptake of radiolabelled nucleosides and nucleobases by in three clonal lines of T. brucei NB-KO procyclics, expressing Tg244440 in pHD1336. EV, empty vector control. Radiolabel concentration was 0.1 µM and uptake was measured over 60 s, in triplicate (average and SEM shown). Statistically significant differences between the control and the Tg244440-expressing cells were established using Student’s unpaired t-test. *, p < 0.05, **, p < 0.01, ***, p < 0.001.
as §1

Tg244440 [4] = biological target: T1, Tg244440; details: clone F5
Protocol: as §1, §2

[5] = [Permeant] 0.1 μM, over 60 s, listed as hypoxanthine
[6] = [Permeant] 1000 μM (unlabelled hypoxanthine to saturate the transporter)

O=c1[nH]cnc2nc[nH]c12 [Hypoxanthine]
Km (TgNBT1): 0.91 µM
Ki (Tg244440 [1]; Ki, competition with 50 nM [3H]-guanine, 30 s, Cheng-Prusoff): 2260 ± 360 nM
Sum of δ(ΔG^0) for the 7-deaza and 9-deaza analogues (Tg244440 [1]; analogues of the named nucleobase): 15.8 kJ/mol
ΔG^0 (Gibbs free energy of interaction) (Tg244440 [1]; calculated from Km or Ki, ΔG0 = −RTln(Ki)): -7.7 kcal/mol
δ(ΔG^0) relative to Guanine (Tg244440 [1]; relative to Guanine): 0.359 kcal/mol
Summation of the Gibbs free energy of the proposed interactions (binding model), Σ (Tg244440 [1]; substrate binding model, Figure 5, for adenosine base group only): -8.01 kcal/mol
Slope of uptake in EV control lower than in +Tg244440 clone F5 ([2]; 0.10 µM [3H]-hypoxanthine over 60 s): 86.2%
Rate of [3H]-hypoxanthine uptake, EV ([2]; [Permeant] 0.1 μM, over 60 s): 0.0066 ± 0.0007 pmol(10^7 Cells)^−1s^−1
Rate of [3H]-hypoxanthine uptake, EV [2, 5]: 0.0066 pmol(10^7 Cells)^−1s^−1
Rate of [3H]-hypoxanthine uptake, EV [2, 6]: 0.00055 pmol(10^7 Cells)^−1s^−1
Uptake of radiolabelled permeant in Tg244440 clones compared to empty vector (Tg244440 [3]): highly significant increases
Rate of [3H]-hypoxanthine uptake, +Tg244440 (Tg244440 [4]; [Permeant] 0.1 μM, over 60 s): 0.048 ± 0.0004 pmol(10^7 Cells)^−1s^−1
Rate of [3H]-hypoxanthine uptake, +Tg244440 (Tg244440 [4]; [5]): 0.048 pmol(10^7 Cells)^−1s^−1
Rate of [3H]-hypoxanthine uptake, +Tg244440 (Tg244440 [4]; [6]): −0.01 ± 0.01 pmol(10^7 Cells)^−1s^−1
